In patent US9408926B2, “KDR and VEGF/KDR binding peptides and their use in diagnosis and therapy” (Bracco Suisse S.A., priority 2002, dated 2016):
Several values for one entry are separate records, joined by “and”; a condition that tells them apart may be missing. Equal values may be shown once.

Tests used:
[1] = test system: VEGF-induced migration of HUVECs; test: VEGF-induced HUVEC migration assay; assay type: cell-based, human; conditions: for IC50: VEGF 10 ng/mL, 22 hours, read-out: IC50 for blocking VEGF-induced migration
Protocol: After 22 hours, quantitation of cell migration/invasion was achieved by post-labeling cells in the insert plates with a fluorescent dye and measuring the fluorescence of the invading/migrating cells in a fluorescent plate reader. The VEGF-induced migration was calculated by subtracting the migration that occurred when only basal medium was placed in the lower chamber of the wells.
(§1) Serum-starved HUVECs were placed, 100,000 cells per well, into the upper chambers of BD fibronectin-coated FluoroBlok 24-well insert plates. […] After 22 hours, quantitation of cell migration/invasion was achieved by post-labeling cells in the insert plates with a fluorescent dye and measuring the fluorescence of the invading/migrating cells in a fluorescent plate reader. The VEGF-induced migration was calculated for each experimental condition by subtracting the amount of migration that occurred when only basal medium was added to the lower chamber of the wells.
as §1, with “reader.” for “reader. The”, “observed in” for “that occurred when only basal medium was added to”, “absence” for “lower chamber”, “VEGF.” for “the wells.”
as §1, with “VEGF-stimulated” for “The VEGF-induced”, “derived” for “calculated for each experimental condition”, “basal migration measured in the absence” for “amount”, “VEGF.” for “migration that occurred when only basal medium was added to the lower chamber of the wells.”
Serum-starved HUVECs were placed, 100,000 cells per well, into the upper chambers of BD fibronectin-coated FluoroBlok 24-well insert plates. […] After 22 hours, quantitation of cell migration/invasion was achieved by post-labeling cells in the insert plates with a fluorescent dye and measuring the fluorescence of the invading/migrating cells in a fluorescent plate reader.

[2] = test system: SW-480 human colon carcinoma cells; test: In vivo inhibition of tumor growth, SW-480 xenograft in nude mice; conditions: for Tumor Weights: 6 mg/kg IV
Protocol: Female athymic nude mice (Crl:NU/NU-nuBR) at 6-8 weeks of age were used in this study. […] Test Articles and vehicle were administered intraperitoneally (IP), Cisplatin was administered intravenously (IV). Tumor measurements were recorded twice weekly using hand-held calipers. Mice were monitored daily for signs of toxicity and morbidity. At study termination, animals were euthanized by carbon dioxide overdose and necropsied for tissue collection.
A total of nine (9) groups were used in this study. Each group contained ten (10) tumor-bearing mice. Groups 1 and 2 contained untreated and vehicle treated negative control mice, respectively. […] Group 9 contained mice that received cisplatin, a standard chemotherapeutic compound as a positive control.
Dosing began the same day that animals were randomly sorted into groups (Study Day 7). Each dose was removed from the dose vial using aseptic technique for each animal and the injection site was wiped with an alcohol swab prior to dose administration. Doses were administered with a 1.0 mL syringe and a 27-gauge×½″ needle for each mouse
The Test Article- and vehicle-treated mice received daily intraperitoneal (IP) injections for 15 days. Cisplatin was administered every other workday for a total of five (5) doses via an intravenous route.
Clinical Observations of each animal were performed and recorded at least once daily for toxicity, morbidity and mortality. Morbidity included signs of illness such as, but not limited to, emaciation, dehydration, lethargy, hunched posture, unkempt appearance, dyspnea and urine or fecal staining.
In accordance with the protocol tumor measurements were taken twice weekly throughout the study by measuring the length and width of tumors with calibrated calipers. […] Tumor weights were calculated using the following formula: mg=(L×W^2)/2. Animals were euthanized either when mean tumor weight was ≧1000 mg per group over two (2) consecutive measurements, or if tumors became ulcerated, impaired the animal's ability to ambulate or obtain food and water.

[3] = test system: KDR-expressing NMU-induced mammary tumor; test: Contrast ultrasound with D5-containing microbubbles to monitor sunitinib treatment of NMU-induced tumors; assay type: in vivo, rat; conditions: for Area *10 (tumor size, fundamental B-mode): sunitinib 40 mg/kg/day from day 106, values multiplied by 10
Protocol: Four (4) female OFA rats (Charles River, Lyon, France) were investigated. At the specific age of 42 days, animals received intraperitoneal injection of N-methyl-N-nitrosourea 50 mg/kg (NMU, Sigma-Aldrich, ref D3254) prepared in 0.9% NaCl, in order to develop a KDR-expressing tumor in the animals (see latency period infra). […] Animals received food and water (tap water) ad libitum.
Stock solution was made weekly and stored at 4° C.
At the level of the tumor site, skin was gently shaved and an ultrasound coupling gel (Aquasonic 100, Parker, USA) was applied between the clinical ultrasound probe and the skin.
The linear probe L12-5 was used.
Vials of a contrast agent containing D5 were reconstituted in 2 ml glucose 5%. […] Emulsification was effected at 12′000 rpm (five minutes). The lyophilizate was reconsistituted as described above. The contrast agent was quickly injected through the catheter placed in the caudal vein at the dose of 2 μl gas per kg. […] Injections were performed at a constant rate of 4 ml/min.
Tumor size was assessed in fundamental-B mode […].
Contrast enhancement was quantified from Dicom files using an in-house quantification and providing, among other parameters, mean echo-signal values in areas of interest as a function of time. The amplitude of the echo signal was expressed as linearized echo amplitude values. Individual frames were analyzed, time-intensity curves were generated and Maximum intensity (Imax) was determined as an index of tumor vascularization and late phase opacification (LPO) was determined at 10 min after injection in the median plane of the tumor.

[4] = target: KDR/VEGF complex on KDR-transfected 293H cells (Homo sapiens, UniProt P35968)
Protocol: Another stock solution was prepared in the same manner, but lacking VEGF. […] The mixtures were incubated on a rotator at 4 C for 60 minutes, followed by addition of 50 μL of soft release avidin-sepharose (50% slurry in ddH2O) to remove excess peptides and another incubation for 30 minutes on a rotator at 4 C. Finally, the soft release avidin-sepharose was pelleted by centrifuging at 12,000 rpm for 5 minutes at room temperature, and the resulting supernatants were used for the assays.
This establishes a utility for the assay as useful for targeting the KDR/VEGF complex in vitro and in vivo for diagnostic or therapeutic purposes.

[5] = target: T1, KDR-expressing 293H cells (Homo sapiens, UniProt P35968); test: Bead-binding assay with peptide-conjugated fluorescent beads; assay type: cell-based; conditions: KDR- versus mock-transfected 293H cells, 40% FBS
T1 construct: Both PCR products were digested with Not1 and ligated together to create the full-length receptor; V5-His (of vector pcDNA6/V5-His C); expressed in transfected cells; host or cells: 293H cells (Invitrogen cat. #11631), transient, lipofectamine 2000
Protocol: The following procedures were performed to assess the ability of KDR-binding peptides to bind to KDR-expressing cells. In this procedure, KDR-binding peptides containing SEQ ID NOS:264, 337, 363, and 373 were conjugated to fluorescent beads, and their ability to bind to KDR-expressing 293H cells was assessed. The experiments show these peptides can be used to bind particles such as beads to KDR-expressing sites.
As a positive control, biotinylated anti-KDR antibody was incubated with the Neutravidin-coated beads as above, except that 0.03 mg of the biotinylated antibody preparation in PBS (Gibco #14190-136) was used instead of peptide solution. Beads can be stored at 4° C. until needed for up to 1 week.
From the above bead preparations, 0.12 mL was spun for 10 minutes at 2000 rpm in a microcentrifuge at room temperature. The supernatant was removed and 0.06 mL of MES pH 6.0 was added. Each bead solution was then vortexed and sonicated in a water bath 15 min. […] The plates were then read on a Packard FluoroCount fluorometer at excitation 550 nm/emission 620 nm. […]
To calculate the number of beads bound per well, a standard curve with increasing numbers of the same fluorescent beads was included in each assay plate. The standard curve was used to calculate the number of beads bound per well based on the fluorescence intensity of each well.

[6] = target: T2, KDR expressed in transiently-transfected 293H cells (Homo sapiens, UniProt P35968); test: Binding of biotinylated peptide/neutravidin-HRP complexes to KDR-transfected 293H cells; assay type: cell-based; conditions: for Binding of tetrameric peptide/avidin-HRP complexes to KDR-transfected cells: 3.33 nM complex; for Reduction of binding of peptide/avidin HRP complex in presence of serum: 40% rat serum, single concentration 2.22-6.66 nM
T2 construct: Both PCR products were digested with Not1 and ligated together to create the full-length receptor; V5-His (of vector pcDNA6/V5-His C); expressed in transfected cells; host or cells: 293H cells (Invitrogen cat. #11631), transient, lipofectamine 2000

KDR = test: KD, B (μM)
Text: Head of the field: KD, B (μM)
Where the first naming reader finds the target: passage: truncated polypeptides tested for binding to KDR-expressing cells.

## 5 CF-Gly-N{[CH2CH2C(═O)-Gly-N(CH2CH2C(═O)-Adoa-Thr-Lys-Pro-Pro-Arg-OH]2}2 [Adjunct A]
[1]; 100 nM alone
  Block of VEGF-induced migration: not by 100 nM Adjunct A alone

## N.N.[Cl][Pt][Cl] [Cisplatin, reference compound]
[2]; Group 9, intravenous, five doses
  Mean tumor weight on Study Day 22: 995 mg

## N.N.[Cl][Pt][Cl] [Cisplatnin]
[2]; day 4 after cell injection
  Tumor Weights: 34 mg
[2]; day 7 after cell injection
  Tumor Weights: 160 mg
[2]; day 8 after cell injection
  Tumor Weights: 173 mg
[2]; day 11 after cell injection
  Tumor Weights: 407 mg
[2]; day 14 after cell injection
  Tumor Weights: 675 mg
[2]; day 20 after cell injection
  Tumor Weights: 635 mg
[2]; day 21 after cell injection
  Tumor Weights: 839 mg
[2]; day 22 after cell injection
  Tumor Weights: 995 mg

## CC(C)c1cc(/C=C(\C#N)C(=O)NCCCc2ccccc2)cc(C(C)C)c1O [SU-1498, reference compound]
[1]; 3 micromolar
  VEGF-induced migration blocked: 47%

## CCN(CC)CCNC(=O)c1c(C)[nH]c(/C=C2\C(=O)Nc3ccc(F)cc32)c1C [sunitinib, Sunitinib]
[3]; 48 hours after treatment, 40 mg/kg/day oral, individual rats, 40 mg/kg/day
  Change of tumor size as a percentage of the tumor prior sunitinib treatment: −4.6% and −0.7% and 30%
[3]; 48 hours after treatment, individual rats no. 1, 2, 3
  Change of Imax: −11% and +23% and +11%
[3]; rat no. 1, day 108
  Area *10 (tumor size, fundamental B-mode): 20.80
[3]; rat no. 1, day 115
  Area *10 (tumor size, fundamental B-mode): 11.00
[3]; rat no. 1, day 116
  Area *10 (tumor size, fundamental B-mode): 10.10
[3]; rat no. 2, day 108
  Area *10 (tumor size, fundamental B-mode): 26.70
[3]; rat no. 2, day 109
  Area *10 (tumor size, fundamental B-mode): 20.20
[3]; rat no. 3, day 108
  Area *10 (tumor size, fundamental B-mode): 7.5
[3]; rat no. 3, day 114
  Area *10 (tumor size, fundamental B-mode): 2.9
[3]; rat no. 3, day 116
  Area *10 (tumor size, fundamental B-mode): 3.0

## AGPGPCKGYMPHQCWYMGTGGGK [SEQ ID NO:321]
[4]; KDR- versus mock-transfected cells
  Binding of peptide-125I-neutravidin complex in the presence of VEGF: specifically bound to KDR-transfected 293H cells
[4]; VEGF omitted
  Binding of peptide-125I-neutravidin complex in the absence of VEGF: not where VEGF was omitted

## AGPKWCEEDWYYCMITGTGGGK [SEQ ID NO:264]
[5]
  Binding of peptide-conjugated fluorescent beads, JJ spacer: enhanced binding to KDR cells
[6]
  Binding of tetrameric peptide/avidin-HRP complexes to KDR-transfected cells: bound to KDR-transfected cells significantly better than to mock-transfected cells
  Reduction of binding of peptide/avidin HRP complex in presence of serum: not significantly affected

## AGPTWCEDDWYYCWLFGTGGGK [SEQ ID NO:277]
[6]
  Reduction of binding of peptide/avidin HRP complex in presence of serum: more than 50%

## Ac-AGPTWCEDDWYYCWLFGTGGGK (SEQ ID NO:277){Ac-GDSRVCWEDSWGGEVCFRYDPGGGK (SEQ ID NO:294)[JJ-Glut-NH(CH2)4-(S)—CH(NH2)C(═O)—]—NH2}—NH2 [D25]
[1]
  IC50: 5 nM

## Ac-AQDWYYDEILJGRGGRGGRGGK (SEQ ID NO:478) {K[Ac-VCWEDSWGGEVCFRYDPGGGK (SEQ ID NO:337) (JJ-Glut)-NH2]}—NH2 [D17]
[1]
  IC50: ~250 nM

## Ac-AQDWYYDEILSMADQLRHAFLSGGGGGK [SEQ ID NO:356]
[6]
  Reduction of binding of peptide/avidin HRP complex in presence of serum: not significantly affected

## GDSRVCWEDSWGGEVCFGGGK [compound 369]
KDR
  Kd: 1300 nM

## GDSRVCWEDSWGGEVCFRYDPGGGK [SEQ ID NO:294]
[5]
  Binding of peptide-conjugated fluorescent beads, JJ spacer: significantly improved the specific binding to KDR
[6]
  Binding of tetrameric peptide/avidin-HRP complexes to KDR-transfected cells: bound to KDR-transfected cells significantly better than to mock-transfected cells
  Reduction of binding of peptide/avidin HRP complex in presence of serum: not significantly affected

## GDSRVCWEDSWGGEVCFRYGGGK [compound 372]
KDR
  Kd: 60 nM

## SRVCWEDSWGGEVCFRYGGGGK [compound 371]
KDR
  Kd: 35 nM

## VCWEDSWGGEVCFGGGK [compound 368]
KDR
  Kd: 910 nM
